In patent US11992560B2, “Electrospun fibers for a local release of an anti-inflammatory drug and a promyelinating drug” (ALMA MATER STUDIORUM—UNIVERSITÀ DI BOLOGNA, priority 2018, dated 2024):

Test system: LPS stimulated RAW 264.7 cells
Assay: In vitro efficacy: gene expression (qPCR) in LPS stimulated RAW cells treated with conditioned medium
Format: cell-based, murine
Conditions: conditioned medium 24 h, LPS 500 ng/ml; respect to sc LPS or ibsc
Description: The murine macrophage cell line RAW 264.7 was purchased from the American Type Culture Collection (ATCC® TIB-71™). Cells were grown at 37° C. in DMEM high glucose medium (Thermo Fisher Scientific) supplemented with 10% heat-inactivated fetal bovine serum (FBS—Thermo Fisher Scientific), 1% penicillin/streptomycin (100 U ml-1/100 μg ml-1) (Thermo Fisher Scientific), in a humidified incubator of 5% CO2. When 70-80% confluency was reached, cells were detached mechanically with the scraper and subcultured in 75 cm2 flasks.
In order to evaluate the bioactivity of ibuprofen and T3 released from electrospun PLLA fibres conditioned medium was prepared ad described below. […] Three samples/group were analysed.
At the end of the treatments total RNA isolation was performed with the RNeasy Micro kit (Qiagen) following the manufacturer's instructions. Total RNA was eluted in RNase-free water and concentration estimated through absorbance values at 260, 280 and 320 nm (Nanodrop 2000 spectrophotometer, Thermo Scientific). […] Semi-quantitative real-time PCR was performed using the CFX96 real-time PCR system (Bio-Rad). […] Relative quantification of the target genes expression was calculated using the comparative threshold method 2^(—ΔΔCT). […]

CC(C)Cc1ccc(C(C)C(=O)O)cc1 (stereo not shown) [SC+IBU, Ibuprofen]
TNFα mRNA level (in words): comparable
